“And” between values parts separate entries of the source, which are not always exact repeats. Equal values may be shown once.
Test system: APP mRNA 5′ UTR (pSV2(APP)CAT reporter)
Experiment: CAT reporter activity in pSV2(APP)CAT-transfected astrocytoma cells
Type: cell-based, human
Details: for increase in CAT activity, maximal: pSV2(APP)CAT-transfected astrocytoma cells
Protocol: The pSV2(APP)CAT construct contains the APP gene 5′ UTR in between the SmaI and the NruI sites (+52 nt and +142 nt from the 5′ cap site respectively). pSV2(APP)CAT was prepared by two steps of subcloning. (1) A 3 kb SmaI-HindIII fragment containing the APP gene, including the coding region and a segment of the 3′ UTR was subcloned into compatible StuI-HindIII sites unique to the 5′ UTR of the CAT gene in the pSV2CAT expression vector. (2) The APP gene fragment in between the NruI and HindIII sites was removed from the construct. The restriction sites were then blunt-ended and religated. In the pSV2(APP)CAT transfectants, 90 nt of the APP gene 5′ UTR were expressed as part of a chimeric […] 5′ leader in the 1.5 kb APP/CAT transcript. The pSV2CAT construct contains the 5′ end of the CAT gene inserted into the unique polylinker site in pBluescript. A 250 nt HindIII/EcoRI fragment from the CAT gene in pSV2CAT was subcloned into the pBS vector (Stratagene). The CAT gene fragment codes for 36 nt of the CAT gene 5′ UTR and 218 bp of the 5′ end of the coding sequence of the CAT gene.
Astrocytoma and neuroblastoma cells were transfected with pSV2CAT or pSV2(APP)CAT by lipofection. Briefly, lipofectamine reagent (Boehringer) was added to DMEM (without serum) and allowed to sit 30 minutes at room temperature. Plasmids (10 μg) in an equal volume of DMEM were then added, and, after sitting for 45 minutes at room temperature, the lipid/DNA solution was added to 60% confluent cells on 100×20 mm cell culture plates. After 4 hours, this solution was removed, and the cells were washed twice in DMEM (without serum). Fresh DMEM medium (containing 10% fetal calf serum) was added. At this time, treatments were administered which included: (1) 0.5 ng/ml IL-1α; (2) 0.5 ng/ml IL-1β; (3) 5 μM Fe2TF (holo-transferrin); and (4) unstimulated controls. […]
After harvesting, cells were resuspended in 100 μl 0.25 M Tris, pH 7.8, and subjected to three cycles of freezing (liquid nitrogen) and […] (37° C.) to lyse cells. […] Protein concentration was determined by a Biorad assay, and exactly 20 μg of lysate was added to a CAT reaction mix containing 50 μl 1M Tris, pH 7.8, 20 μl acetylcoenzyme-A (3.5 mg/ml) and […] ^14C-labeled chloramphenicol (25 mCi/ml). […] For quantitative analysis, the areas on the TLC plates which aligned with dots on the film were excised and the radioactivity was counted in 5 ml of scintillation cocktail (Econofluor) using a scintillation counter (Hewlett Packard). In some experiments, CAT activity was measured by counting the amount of CAT reaction product diffusing into liquid scintillation fluid as described previously (Rogers, et al., Nucl. Acid Res. 22:2678 (1994)). […]

Substance	increase in CAT activity, average (pSV2(APP)CAT transfectants, matching experiments, average) [fold]	increase in CAT activity, maximal	enhancement of CAT activity, parallel transfection (pSV2(APP)CAT transfectants, parallel to the pSV2CAT transfection) [fold]
interleukin-1α [IL-1α]	2.3	3 fold and 4 fold	
interleukin-1β [IL-1β]		4 fold	3

From patent publication US6849405B2, “Translation enhancer element of the human amyloid precursor protein gene” (The Brigham and Women's Hospital, Inc., priority 1997, dated 2005)
